We go through 1 compound from patent US20040072746A1, “Inhibitors of monocarboxylate transport” (priority 2001, published 2004).

For one test, the target named is T1, human MCT4 (Homo sapiens, UniProt O15427).
T1 construct: from the full length copy and subcloned into the S. cerevisiae expression plasmid pACES14; made in house; host or cells: Saccharomyces cerevisiae BY4742 (jen1 deletion), membrane preparation; plasmid pACES14-hMCT4
T1 sequence (O15427 1-465): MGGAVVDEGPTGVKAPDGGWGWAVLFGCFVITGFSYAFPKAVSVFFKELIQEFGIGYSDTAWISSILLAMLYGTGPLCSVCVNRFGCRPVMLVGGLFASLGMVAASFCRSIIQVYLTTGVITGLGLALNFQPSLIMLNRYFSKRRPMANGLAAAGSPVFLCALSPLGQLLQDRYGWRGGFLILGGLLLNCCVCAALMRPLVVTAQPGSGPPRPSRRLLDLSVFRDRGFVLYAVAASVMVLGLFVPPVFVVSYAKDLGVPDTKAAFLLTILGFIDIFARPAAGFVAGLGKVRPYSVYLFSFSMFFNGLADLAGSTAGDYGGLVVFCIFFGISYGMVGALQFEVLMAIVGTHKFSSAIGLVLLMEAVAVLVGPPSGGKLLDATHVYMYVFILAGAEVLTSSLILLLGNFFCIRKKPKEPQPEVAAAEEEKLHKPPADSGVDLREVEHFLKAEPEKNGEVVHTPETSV
The test is described as follows: MCT filter binding assay, yeast membranes, radioligand specific binding. To be noted: ~2.5 nM radioligand. The method, then: (§1) For yeast cells transformed with expression plasmids containing the human MCT 1-4 ORFs the ability of membrane preparations to bind radioligand was determined using a single ligand concentration/multi protein concentration binding assay. This generated an estimate of the amount of active binding protein present in each membrane preparation. The ligand concentration used will give an estimate of Bmax that is approximately 90% of the true value. 10 μl of ligand A, B or C that had been diluted 50 fold with assay buffer (50 mM HEPES, 0.1 mM EDTA, 0.15 M NaCl, pH 7.5, 0.5% BSA) was dispensed into wells of a polypropylene microtitre plate. This gives a final radiolabelled ligand concentration of ˜2.5 nM. […] The membranes were diluted to give a known amount/180 μl assay buffer. This is typically in the […] range. For the membranes with high binding site number a more dilute membrane preparation should be added. 180 μl of each membrane solution was then added to each well and incubated at 2 hours at room temperature with shaking. The membranes were harvested onto GF-B filter plates and washed with assay buffer without BSA, dried, scintillant added and counts detected using the relevant program for each ligand on a Packard Top Count plate reader.

The next test concerns the target T2, human MCT2 (Homo sapiens, UniProt O60669).
T2 construct: The full length open reading frame for human MCT2 was then subcloned into the S. cerevisiae expression plasmid, pACES14; made in house; host or cells: Saccharomyces cerevisiae BY4742 (jen1 deletion), membrane preparation; plasmid pACES14-hMCT2
T2 sequence (O60669 1-478): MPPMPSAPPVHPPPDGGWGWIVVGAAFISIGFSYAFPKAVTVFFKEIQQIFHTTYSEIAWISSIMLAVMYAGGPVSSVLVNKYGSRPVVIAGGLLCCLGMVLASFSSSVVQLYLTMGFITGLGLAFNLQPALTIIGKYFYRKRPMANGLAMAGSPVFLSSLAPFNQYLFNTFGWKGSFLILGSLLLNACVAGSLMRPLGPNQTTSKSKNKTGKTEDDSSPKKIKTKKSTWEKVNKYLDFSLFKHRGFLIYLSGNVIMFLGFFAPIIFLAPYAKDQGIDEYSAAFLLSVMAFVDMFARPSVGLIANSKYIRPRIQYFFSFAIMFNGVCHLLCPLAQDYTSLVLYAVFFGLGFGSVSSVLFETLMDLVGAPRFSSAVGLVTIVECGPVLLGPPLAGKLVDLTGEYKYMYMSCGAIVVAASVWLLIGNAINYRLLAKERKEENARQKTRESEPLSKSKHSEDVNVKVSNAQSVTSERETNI
The description is as above. To be noted: ~2.5 nM radioligand. The method, then:
as §1

As for `CC(C)Cc1nn(C)c(=O)c2c(SCCCO)n(Cc3ccccc3[125I])cc12` [Ligand A, 2,6-Dihydro-7-[(3-hydroxypropyl)thio]-6-[(2-[^125I]iodophenyl)methyl]-2-methyl-4-(2-methylpropyl)-1H-pyrrolo[3,4-d]pyridazin-1-one], the “Specific binding (cpm) Average” value at human MCT4 (MCT4 (2 ug)) came out at 405 cpm; at human MCT4 (MCT4 (20 ug)), 872 cpm; at human MCT2 (MCT2 (2 ug)), 7286 cpm; at human MCT2 (MCT2 (20 ug)) it was 14769 cpm.
